# Results as given in PubChem BioAssay AID1996.
# Conditions: buffer; pH 7.4; 200.0 µM
row,SMILES,solubility kinetic [µg/mL]
1,CC(=O)c1ccc(NC(=O)COC(=O)c2ccc(F)cc2F)cc1,15.2
2,CS(=O)(=O)c1ccc2nc(NC(=O)c3ccccc3)sc2c1,1.5
3,O=Cc1c(C(=O)O)n(Cc2ccc(F)cc2Cl)c2ccccc12,> 49.8
4,O=C(c1cc(-c2ccccc2)nc2ccccc12)N1CCCC1,42
5,Cc1ccc(CNc2ccc(N3CCOCC3)c(Cl)c2)cc1,1.7
6,Brc1cccc(-c2cnco2)c1,4
7,O=c1oc2c(-c3ccc([N+](=O)[O-])cc3)cc(O)cc2s1,< 0.6
8,CC1(C)C2([N+](=O)[O-])CN3CC1([N+](=O)[O-])CN(C2)C3c1ccc(O)c(O)c1 (stereo not drawn),3.5
9,Cl.Nc1nc(N2CCN(c3ccccn3)CC2)nc2ccccc12,54.8
10,COc1ccccc1/C=C/C(=O)N1CCN(S(=O)(=O)c2cccs2)CC1,23.7
11,Nc1nnc(SCC(=O)NC2CCCCCC2)s1,> 43
12,CC(C)(C)NC(=O)COC(=O)CCC(=O)c1ccc(F)cc1,> 46.4
13,Cl.O=C(CN1CCCCC1)c1ccc2c(c1)OCO2,> 42.6
14,COc1ccccc1C(=O)N1CCC(N2CCN(c3ccccc3)CC2)CC1,41.5
15,Cc1[nH]c(SCC(=O)Nc2cc(C(N)=O)cc(C(N)=O)c2)nc1Cc1ccccc1,> 63.5
16,O=C(NC1CCSc2ccccc21)c1ccc([N+](=O)[O-])cc1 (stereo not drawn),3.5
17,COc1ccc(NC(=S)N2CCCCC2c2cccnc2)cc1 (stereo not drawn),49
18,CN(C(=O)COC(=O)Cc1ccccc1[N+](=O)[O-])C1CCS(=O)(=O)C1 (stereo not drawn),> 55.6
19,O=C(COC(=O)c1ccc([N+](=O)[O-])s1)c1ccc[nH]1,22.5
20,COc1cc(NC(=O)c2cccc(S(=O)(=O)N3CCCCC3)c2)cc(OC)c1OC,7.2

row,SMILES,solubility kinetic [µg/mL]
1,O=C1CSC(c2ccc([N+](=O)[O-])cc2)N1Cc1ccccc1 (stereo not drawn),32.5
2,CC[N+](C)(CC)CCC(c1ccccc1)C1CCCCC1 (stereo not drawn),29.5
3,CCc1nc(Nc2cccc(O)c2)c2oc3ccccc3c2n1.Cl,0.5
4,COc1ccc(C/C(N)=N/OC(=O)c2cccs2)cc1,7.5
5,Cc1c(Cl)cccc1NC(=O)C1CC2CCC1C2 (stereo not drawn),1.5
6,O=C(COC(=O)c1ccccc1O)NCCCc1ccccc1,5
7,O=C(CN1c2cccc3cccc(c23)S1(=O)=O)NCCc1ccc(F)cc1,1.9
8,COc1ccc(C2=NCC(=S)Nc3ccc(Cl)cc32)cc1OC,< 0.4
9,COc1cc2nc(CN3CCN(S(=O)(=O)c4ccc(Br)cc4)CC3)[nH]c(=O)c2cc1OC,17.7
10,Cc1ccc(NS(=O)(=O)c2c(C)[nH]c(=O)[nH]c2=O)cc1F,> 47
11,CC1CCC(NC(=O)CNC(=O)c2cccs2)CC1 (stereo not drawn),> 42.1
12,COc1ccc(OC)c(NC(=O)c2csc(Cl)c2OC)c1,< 0.7
13,CCCN(CC(=O)Nc1ccccc1OC)C(=O)c1ccccn1,> 49.1
14,Cc1ccc(S(=O)(=O)CCc2nc3ccccc3[nH]2)cc1C,> 47.2
15,CNC(=O)CCCN1C(=O)c2ccccc2Sc2ncccc21,> 49.1
16,O=Cc1c(NCc2ccco2)nc2ccccn2c1=O,19.5
17,Cc1c(NC(=O)c2ccccc2NC(=O)c2ccccc2)cccc1C(=O)O,54.5
18,COc1ccc(C(=O)O)cc1S(=O)(=O)N1CCN(Cc2ccc3c(c2)OCO3)CC1,> 65.2
19,CCc1ccccc1NC(=O)c1cc([N+](=O)[O-])ccc1N1CCOCC1,> 53.3
20,COc1ccc(S(=O)(=O)N2CCC(C)CC2)cc1OC,44.8

row,SMILES,solubility kinetic [µg/mL]
1,O=[N+]([O-])c1ccc(COc2cccnc2)cc1,> 34.5
2,OC(CNCc1ccccc1)(c1ccccc1)c1ccccc1,> 45.5
3,O=C(NCc1ccc2c(c1)OCO2)c1ccco1,> 36.8
4,O=Nc1ccc(O)c2ncccc12,> 26.1
5,Cc1onc(-c2c(Cl)cccc2Cl)c1C(=O)c1ccc(F)cc1,< 0.7
6,Cc1ccc(Cl)cc1NC(=O)Cn1c(C)csc1=O,16.4
7,CCOC(=O)/C=C/C(=O)OCC(=O)Nc1cccc(Br)c1,13.8
8,CC(C)C1CC(CCN)(c2ccccc2)CCO1.O=C(O)C(=O)O (stereo not drawn),> 50.6
9,Cn1c(O)c(C=Nc2ccccc2)c(=O)n(C)c1=O,24
10,Cc1cn(C2OC(CC(=O)Oc3ccccc3)C(O)C2O)c(=O)[nH]c1=O (stereo not drawn),48.5
11,NS(=O)(=O)c1ccc2c(c1)C(=NO)c1cc(S(N)(=O)=O)ccc1-2,4.6
12,Cc1ccc(/C=C/C(=O)NCc2cccs2)c(C)c1,< 0.6
13,O=c1[nH]cnc2ccc([N+](=O)[O-])cc12,> 28.7
14,CCCc1nc(-c2cc3ccccc3[nH]c2=O)no1,> 38.3
15,Cc1nc(-c2noc(-c3cccc(Cl)c3)n2)c(C(F)(F)F)o1,< 0.2
16,CC1CCN(C(=O)/C(=C\c2ccccc2)NC(=O)c2ccccc2)CC1,52.2
17,CCc1cc(C(=O)c2ccc(OC)cc2)c(NC(=O)CN2CCCC2)s1,5.9
18,COCCCNC(=S)NCCc1ccc(F)cc1,> 40.6
